Results as given in US9216179B2, “Treatment of gout and hyperuricemia” (ARDEA BIOSCIENCES, INC., priority 2010, dated 2015).

Legend:
patients with gout = assay: Phase II gout dose response study, Lesinurad versus placebo (incidence of gout flares); assay type: in vivo, human
Experimental: Purpose: To compare the proportion of subjects whose serum urate (sUA) level is <6.0 mg/dL after 28 days of dosing by treatment group.
Official Title: Randomized, Double-Blind, Multicenter, Placebo-Controlled, Safety and Efficacy Study of Lesinurad Versus Placebo in the Treatment of Hyperuricemia in Patients With Gout
Experimental Dosage Form: 200 mg capsule of Lesinurad, with appropriate pharmaceutically acceptable excipients
Primary Outcome Measures: Compare the proportion of subjects whose serum urate (sUA) level is <6.0 mg/dL after 28 days of dosing by treatment group.
Secondary Outcome Measures: • Evaluate the proportion of subjects with sUA levels <6.0 mg/dL at each weekly study visit. • Evaluate absolute and percent reduction from baseline in sUA levels at each weekly study visit. • Evaluate the percent change in 24-hr urine urate level (excretion) from baseline to Day 28. • Evaluate the incidence of gout flares. • Evaluate the safety and tolerability of Lesinurad in subjects with gout.
Inclusion Criteria: • Male or post-menopausal or surgically sterile female. • Hyperuricemic (i.e., screening sUA ≧8 mg/dL). • Meets criteria for the diagnosis of gout as per the American Rheumatism Association (ARA) Criteria for the Classification of Acute Arthritis of Primary Gout (see Appendix B). • Willing and able to give informed consent and adhere to visit/protocol schedules (informed consent must be given before the first study procedure is performed).
Results: Incidence of gout flares are presented in Table 2 below indicating the majority of flares occurred in the first week when patients were receiving 200 mg QD (6/10 total flares on drug). Few additional flares occurred as dose increased, even with greater decrease in sUA. Duration of flares is shorter at higher doses, the opposite of what would be expected with greater reduction in sUA.

[1] = test system: gout patients with elevated uric acid levels; conditions: for serious adverse events or deaths: Phase 2b study, 28 days
Experimental: In some embodiments, for patients randomized to receive 400 mg a compound of formula I and 600 mg of a compound of formula I, a daily dose of compound of formula I was escalated weekly in increments of 200 mg/day.

[2] = test system: gout patients with sUA greater than 8 mg/dL; assay: Example 7: open-label clinical pharmacology study, combination with allopurinol; assay type: in vivo, human
Experimental: This 20-patient, open-label clinical pharmacology study included 2 cohorts of gout patients with sUA greater than 8 mg/dL on no urate-lowering therapy who began colchicine dosing one week prior to baseline and continued for 5 weeks. […] Elevations in CK and rhabdomyolysis are known side effects of colchicine.

Patients [3] = assay: Example 4 A: allopurinol 300 mg QD for 1 week followed by compound of Formula I, serum uric acid; assay type: in vivo, human
Experimental: A: Patients received allopurinol 300 mg QD for 1 week followed by a compound of Formula I. A compound of Formula I (200 mg) reduced serum uric acid levels 9% beyond the reduction observed for allopurinol alone. Titration up to 400 mg of a compound of Formula I provided further reduction of serum uric acid levels by 6%. The combination of a compound of Formula I (400 mg) and allopurinol provided 100% response (i.e., sUA <6 mg/dL) and an 80% sUA reduction below 5 mg/dL. These responses are illustrated in FIG. 6.

[4] = test system: gout patients with sUA greater than 8 mg/dL; assay: Example 6: open-label clinical pharmacology study, combination with febuxostat; conditions: for increases in serum creatinine (Grade): human, in vivo
Experimental: Also provided herein in certain embodiments is an open-label, clinical pharmacology study including 2 cohorts of gout patients with sUA greater than 8 mg/dL on no urate-lowering therapy. In some embodiments, patients received colchicine beginning one week prior to baseline and continuing for 5 weeks for flare prophylaxis. In other embodiments, the first cohort of patients in the study consisted of gout patients with a median baseline sUA of 9.2 mg/dL who were administered 40 mg febuxostat for the first week, 40 mg febuxostat in combination with 400 mg of a compound of formula I for the second week, and then 40 mg febuxostat in combination with 600 mg of a compound of formula I for the third week. […] In some embodiments, less than 40 mg, greater than 40 mg, less than 80 mg, greater than 80 mg, or any suitable amount of febuxostat was administered.
This 21-patient, open-label, clinical pharmacology study included 2 cohorts of gout patients with sUA greater than 8 mg/dL on no urate-lowering therapy. All patients received colchicine beginning one week prior to baseline and continuing for 5 weeks for flare prophylaxis.

Patients [5] = conditions: Allopurinol Alone
Experimental: B: Patients received allopurinol alone for one week. For the second week, Panel 1 received a compound of Formula I (400 mg) and Panel 2 received a compound of Formula I (600 mg) in combination with allopurinol 300 mg.

gout patients = conditions: controlled trials; cited from earlier work
[6] = test system: individuals treated with the drug; conditions: in vivo; cited from earlier work
IL-1 = IL-1 release/production after stimulation (FIG. 1, FIG. 3)
[7] = test system: monosodium urate crystal-induced inflammatory response; assay: rat air pouch model of crystal-induced arthropathy; assay type: in vivo, Sprague-Dawley rats; conditions: PO 10, 30, 100 mg/kg; 150 mg MSU; FIGS. 4 and 5
Experimental: • 1. […] NaOH was added as required to maintain pH between 8-9. The solution was filtered and incubated at ambient with slow stirring continuously for 24 hours. • b. Crystals were washed, dried and sterilized by autoclaving. • c. Crystals were suspended in sterile saline at 0.67 mg/ml, 2.67 mg/ml and 10 mg/ml just prior to use. • 2. 110 Sprague-Dawley rats (male, 160-180 g) were obtained. Following quarantine, rats were accepted for the Study if no signs of clinical distress were noted during the 3-day quarantine period. The rats were maintained on certified laboratory diet and water ad libitum. • 3. The rats were ear-notched for individual identification. • 4. The rat weights were recorded. • 5. […] Exudates volume was measured and recorded for each animal. • a. […] Plasma extravasation was measured by optical absorbance at 620 nm for each exudate sample. • 14. […] Mean cell counts and standard deviations were determined for each group. • b. Mean optical absorbance measurements and standard deviations were determined for each group. • c. Group means and standard deviations for TNF-alpha and IL-1 were determined for each group. • d. Statistical significance of treatments on mean cell counts, mean optical absorbance measurements and mean cytokine measurements were determined by comparison of means for treatment and positive control groups with vehicle group.

[8] = test system: individuals treated with probenecid; conditions: in vivo; cited from earlier work
TNF-α = TNF-α production (FIG. 2); conditions: FIG. 2, 6 hour time point
[9] = Placebo qd + allopurinol, sUA <6 mg/dL after 4 weeks
[10] = Cohort 1, allopurinol 300 mg alone
[11] = Cohort 2, allopurinol 300 mg alone
[12] = Cohort 1, febuxostat 40 mg alone
[13] = Cohort 2, febuxostat 80 mg alone

With O=C(O)CSc1nnc(Br)n1-c1ccc(C2CC2)c2ccccc12 [Formula I, 2-(5-bromo-4-(4-cyclopropylnaphthalen-1-yl)-4H-1,2,4-triazol-3-ylthio)acetic acid] as the molecule, how does the “% of patients with Flares by Dose at Time of Flare” value (shortened to “% of patients with Flares by Dose”) (patients with gout; 200 mg at time of flare) read?
Its value is 6% (6/96).

And the “Mean Duration of Flares (by Dose at Time of Flare)” value (patients with gout; 200 mg at time of flare)?
Its value is 4 days.

What about the “% of patients with Flares by Dose” value (patients with gout; 400 mg at time of flare) of the same molecule?
The value was 2% (1/65).

What about the “Mean Duration of Flares (by Dose at Time of Flare)” value (patients with gout; 400 mg at time of flare) of the same molecule?
The value was 2 days.

What about the “% of patients with Flares by Dose” value (patients with gout; 600 mg at time of flare) of the same molecule?
Its value is 9% (3/32).

And the “Mean Duration of Flares (by Dose at Time of Flare)” value (patients with gout; 600 mg at time of flare)?
Its value is 1.7 days.

And the “Mean Duration of Flares” value (patients with gout; Randomized Dose Group 200 mg)?
The value was 4 days.

What about the “% Patients with Flares” value (patients with gout; Randomized Dose Group 200 mg qd for 28 days) of the same molecule?
The value was 6%.

What about the “Mean Duration of Flares” value (patients with gout; Randomized Dose Group 400 mg) of the same molecule?
The value was 3.8 days.

What about the “% Patients with Flares” value (patients with gout; Randomized Dose Group 400 mg (200 mg 7 days, 400 mg 21 days)) of the same molecule?
The value was 12%.

What about the “Mean Duration of Flares” value (patients with gout; Randomized Dose Group 600 mg) of the same molecule?
The value was 1.5 days.

What about the “% Patients with Flares” value (patients with gout; Randomized Dose Group 600 mg (200 mg 7 days, 400 mg 7 days, 600 mg 14 days)) of the same molecule?
Its value is 13%.

And the “serious adverse events or deaths” value [1]?
Its value is “no serious adverse events or deaths”.

What about the “Percent patients <5 mg/dL” value ([2]; Cohort 1, 400 mg alone) of the same molecule?
The value was 0%.

And the “Percent sUA change at trough (median, from baseline)” value (“Percent sUA change at trough” for short) ([2]; Cohort 1, 400 mg alone)?
Its value is −28%.

What about the “Percent sUA change intraday (median, from baseline)” value (“Percent sUA change intraday” below) ([2]; Cohort 1, 400 mg alone) of the same molecule?
The value was −44%.

And the “Response rate (<6 mg/dL)” value ([2]; Cohort 1, 400 mg alone)?
The value was 20%.

What about the “Percent patients <5 mg/dL” value ([2]; Cohort 2, 600 mg alone) of the same molecule?
The value was 33%.

What about the “Percent sUA change at trough” value ([2]; Cohort 2, 600 mg alone) of the same molecule?
Its value is −39%.

What about the “Percent sUA change intraday” value ([2]; Cohort 2, 600 mg alone) of the same molecule?
The value was −54%.

What about the “Response rate (<6 mg/dL)” value ([2]; Cohort 2, 600 mg alone, listed as 2-(5-bromo-4-(4-cyclopropylnaphthalen-1-yl)-4H-1,2,4-triazol-3-ylthio)acetate) of the same molecule?
The value was 67%.

What about the “serious adverse events or discontinuations considered possibly related” value ([2]; human, in vivo) of the same molecule?
The value was “no serious adverse events or discontinuations”.

And the “reduction of serum uric acid levels beyond the reduction observed for allopurinol alone” value (Patients [3]; Formula I 200 mg after allopurinol 300 mg QD for 1 week)?
Its value is 9%.

And the “further reduction of serum uric acid levels” value (Patients [3]; titration up to 400 mg)?
Its value is 6%.

And the “additional sUA reduction compared to febuxostat alone” value ([4]; addition of 600 mg to 40 mg febuxostat)?
Its value is 39%.

And the “additional sUA reduction compared to febuxostat alone” value ([4]; addition of 600 mg to 80 mg febuxostat)?
The value was 51%.

And the “increases in serum creatinine (Grade)” value [4]?
The value was “no Grade 2 or higher increases”.

Which results are given for Oc1ncnc2[nH]ncc12 [allopurinol]?
% Patients <4 mg/dL (Patients [5]): 0%; % Patients <5 mg/dL (Patients [5]): 9%; Response: % Patients <6 mg/dL (Patients [5]): 63%; sUA Mean % Reduction (Patients [5]): 32%; gout patients responding adequately (sUA less than 6 mg/dL) (gout patients): 30-40%; serious adverse events or deaths [1]: fatal myocardial infarction; Mean Change in Serum Urate at Week 4 vs. Baseline on Allopurinol Alone ([1]; Placebo qd + allopurinol): +3%; Response Rate (ITT Analysis) [1, 9]: 25%; Response Rate (LOCF Analysis) [1, 9]: 29%; patients who discontinued treatment due to an adverse event ([1]; human, in vivo): three; patients achieving target sUA levels below 6 mg/dL ([2]; 300 mg allopurinol alone): 20%; Response rate (<6 mg/dL) ([2]; Cohort 1 (median baseline 9.8 mg/dL), allopurinol 300 mg alone): 10%; Percent patients <5 mg/dL [2, 10]: 5%; Percent sUA change at trough (median, from baseline) [2, 10]: −31%; Percent sUA change intraday (median, from baseline) [2, 10]: −38%; Response rate (<6 mg/dL) ([2]; Cohort 2 (median baseline 9.1 mg/dL), allopurinol 300 mg alone): 30%; Percent patients <5 mg/dL [2, 11]: 5%; Percent sUA change at trough (median, from baseline) [2, 11]: −27%; Percent sUA change intraday (median, from baseline) [2, 11]: −35%; incidence of side effects, of all individuals treated [6]: 20%

Which “increases in serum creatinine (Grade)” value [4] does the source give for COc1cc2c(c(OC)c1OC)-c1ccc(OC)c(=O)cc1[C@@H](NC(C)=O)CC2 [colchicine] here?
The value was “one Grade 2 serum creatinine increase”.

What does the source list for O=C([O-])CSc1nnc(Br)n1-c1ccc(C2CC2)c2ccccc12.[Na+] [compound 1, 2-(5-Bromo-4-(4-cyclopropylnaphthalen-1-yl)-4H-1,2,4-triazol-3-ylthio)acetate sodium salt]?
blocks IL-1 release, time after stimulation (IL-1; FIG. 1): ≤ 1 h; monosodium urate crystal-induced inflammatory response [7]: blocked

Which “Response rate (<6 mg/dL)” value ([4]; Cohort 1 (median baseline 9.2 mg/dL), febuxostat 40 mg alone) does the source give for Cc1nc(-c2ccc(OCC(C)C)c(C#N)c2)sc1C(=O)O [febuxostat] here?
The value was 67%.

What about the “Response rate (<6 mg/dL)” value ([4]; Cohort 1 (median baseline 9.2 mg/dL), febuxostat 40 mg alone, listed as Febuxostat) of the same molecule?
Its value is 67%.

What about the “Percent patients <4 mg/dL” value [4, 12] of the same molecule?
The value was 0%.

And the “Percent sUA change at trough” value [4, 12]?
The value was −35%.

What about the “Percent sUA change intraday” value [4, 12] of the same molecule?
The value was −44%.

What about the “Response rate (<6 mg/dL)” value ([4]; Cohort 2 (median baseline […]), febuxostat 80 mg alone) of the same molecule?
The value was 56%.

And the “Response rate (<6 mg/dL)” value ([4]; Cohort 2 (median baseline […]), febuxostat 80 mg alone, listed as Febuxostat)?
The value was 56%.

What about the “Percent patients <4 mg/dL” value [4, 13] of the same molecule?
The value was 0%.

What about the “Percent sUA change at trough” value [4, 13] of the same molecule?
The value was −47%.

And the “Percent sUA change intraday” value [4, 13]?
The value was −52%.

And the “patients achieving sUA levels below 4 mg/dL or below 3 mg/dL” value ([4]; either dose of febuxostat alone)?
Its value is “No patient”.

For CCCN(CCC)S(=O)(=O)c1ccc(C(=O)O)cc1 [probenecid], which individuals developing intolerance [8] is on record?
Its individuals developing intolerance is “one-third”.

And the “individuals failing to achieve reduction of serum uric acid levels <6 mg/dL” value [8]?
Its value is 25-50%.

Which results are given for rilonacept?
IL-1 production (IL-1; FIG. 3): does not reduce; production of TNF-α (TNF-α): inhibits
